Legend:
[1] = Inhibition of GST-MDM2/His6-p53 interaction expressed in Escherichia coli after 1 hr by ELISA
[2] = Chemical stability of the compound assessed as enzymatic hydrolysis in ammonium bicarbonate buffer at pH 7.8 after 24 hrs in presence of chymotrypsin; assay type: physicochemical; conditions: isolated protein, pH 7.8, 24 h
[3] = Chemical stability of the compound assessed as enzymatic hydrolysis in ammonium bicarbonate buffer at pH 7.8 after 24 hrs in presence of pronase; assay type: physicochemical; conditions: pH 7.8, 24 h
[4] = Chemical stability of the compound assessed as enzymatic hydrolysis in ammonium bicarbonate buffer at pH 7.8 after 24 hrs in presence of trypsin; assay type: physicochemical; conditions: isolated protein, pH 7.8, 24 h

| Compound | IC50 [1] [µM] | Stability [2] | Stability [3] | Stability [4] |
| --- | --- | --- | --- | --- |
| CCC(=O)N(CCNC(=O)[C@H](Cc1c[nH]c2ccccc12)N(CCNC(=O)[C@H](Cc1ccccc1)N(CCNC(=O)[C@H](C)N(CCN)C(=O)CC(C)C)C(=O)CC)C(=O)CCO)[C@H](C(N)=O)C(C)C | > 1000 | – | – | – |
| CCC(=O)N(CCNC(=O)[C@H](CC(C)C)N(CCNC(=O)[C@H](Cc1c[nH]c2ccccc12)N(CCNC(=O)[C@H](Cc1ccccc1)N(CCN)C(=O)CC)C(=O)CCO)C(=O)CC)[C@@H](C)C(N)=O | 120 | – | – | – |
| CCC(=O)N(CCNC(=O)[C@H](CC(C)C)N(CCNC(=O)[C@H](Cc1c[nH]c2ccccc12)N(CCNC(=O)[C@H](Cc1ccccc1)N(CCNC(=O)[C@H](C)N(CCN)C(=O)CC)C(=O)CC)C(=O)CCO)C(=O)CCc1ccccc1)[C@@H](C)C(N)=O | 120 | Stable | Stable | Stable |
| CC(=O)N[C@@H](CCC(N)=O)C(=O)N[C@@H](CCC(=O)O)C(=O)N[C@H](C(=O)N[C@@H](Cc1ccccc1)C(=O)N[C@@H](CO)C(=O)N[C@@H](CC(=O)O)C(=O)N[C@@H](CC(C)C)C(=O)N[C@@H](Cc1c[nH]c2ccccc12)C(=O)N[C@@H](CCCCN)C(=O)N[C@@H](CC(C)C)C(=O)N[C@@H](CC(C)C)C(=O)N1CCC[C@H]1C(=O)O)[C@@H](C)O | 8.7 | – | – | – |
| CCC(=O)N(CCNC(=O)[C@H](CC(C)C)N(CCNC(=O)[C@H](Cc1c[nH]c2ccccc12)N(CCNC(=O)[C@H](Cc1ccccc1)N(CCNC(=O)[C@H](C)N(CCN)C(=O)CC)C(=O)CC)C(=O)CCO)C(=O)CC)[C@@H](C)C(N)=O | 38 | – | – | – |

— ChEMBL document CHEMBL1681656, “Design and synthesis of AApeptides: a new class of peptide mimics” (Bioorg Med Chem Lett, 2011)
